Consider one compound from US5856506A, “Phosphatase inhibitors and methods of use thereof” (University of Pittsburgh, priority 1997, dated 1999).

The test system of experiment [1] is human MDA-MB-231 breast cancer cells. In words: Antiproliferative activity, tetrazolium reduction assay (Lazo method), 72 h. In kind it is cell-based. The following applies: for IC50: MDA-MB-231, 72 h continuous treatment, read-out: concentration causing 50% growth inhibition. The source says:
The ability of the compounds of the present invention to inhibit proliferation can be assessed by methods known to those of ordinary skill in the art. For example, proliferating cells can be contacted with a compound of the invention, and cell numbers determined. A reduction in cell number in treated versus untreated cells provides a measure of the ability of the present compounds to inhibit proliferation. In a preferred embodiment the cells to be treated are cancer cells, for example breast cancer cells such as the CDC25B+ breast cancer cells MDA-MB-231, which are available from the American Type Culture Collection (Accession No. HTB-26). The antiproliferative activity of the present compounds can also be measured by the assay described by Lazo et al. (1995) J. Biol. Chem. 270: 5506, the disclosure of which is incorporated herein by reference. The microtiter-based calorimetric assay is based upon the reduction of 3-[4,5-dimethylthiazol-2-yl]-2,5-diphenyl tetrazolium bromide by living cells, and permits evaluation of the cytostatic or cytotoxic actions of large numbers of compounds quickly in mouse embryonic fibroblasts and human CDC25B+ breast cancer cells. Briefly, exponentially growing CDC25B+ MDA-MB-231 cells are treated continuously with from 0 to 100 μM of a compound of the invention, and cell proliferation is determined calorimetrically after 72 hours by assessing the ability of the cells to reduce 3-[4,5-dimethylthiazol-2-yl]-2,5-diphenyl tetrazolium bromide.
Human MDA-MB-231 breast carcinoma cells were obtained from the American Type Culture Collection at passage 28 and were maintained for no longer than 20 passages. The cells were grown in RPMI-1640 supplemented with 1% penicillin (100 μg/mL) and streptomycin (100 μg/mL), 1% L-glutamate,and 10% fetal bovine serum in a humidified incubator at 37° C. under 5% CO2 in air. Cells were routinely found free of mycoplasma. To remove cells from the monolayer for passage or flow cytometry, cells were washed two times with phosphate buffer and briefly (<3 min) treated with 0.05% trypsin/2 mM EDTA at room temperature. After the addition of at least two volumes of growth medium containing 10W fetal bovine serum, the cells were centrifuged at 1,000×g for 5 min. Compounds were made into stock solutions using DMSO, and stored at -20° C. All compounds and controls were added to obtain a final concentration of 0.1-0.2% (v/v) of the final solution for experiments.
The antiproliferative activity of the compounds was determined by the method of Lazo et al. (1995) J. Biol. Chem. 270:5506. Briefly, cells (6.5×10^3 cells/cm^2) were plated in 96 well flat bottom plates for the cytotoxicity studies and incubated at 37° C. for 48 h. The plating medium was aspirated off 96 well plates and 200 μL of growth medium containing the compound was added per well. Compounds were used at from O to the highest available concentration which ranged from 30 to 100 μM. Plates were incubated for 72 h, and then washed 4× with serum free medium. After washing, 50 μL of 3-[4,5-dimethylthiazol-2-yl]-2,5-diphenyl tetrazolium bromide solution (2 mg/mL) was added to each well, followed by 150 μL of complete growth medium. Plates were then incubated an additional 4 h at 37° C. The solution was aspirated off, 200 μL of DMSO added, and the plates were shaken for 30 min at room temperature. Absorbance at 540 nm was determined with a Titertek Multiskan Plus plate reader. Biologically active compounds were tested at least 3 independent times.

The next experiment addresses PP2A (Bos taurus, UniProt P67774). In words: Phosphatase activity by [32P] release from phosphorylase-a or phosphohistone (Honkanen method). In kind it is biochemical. The following applies: 100 μM inhibitor; none = 100; read-out: PP2A, percent inhibition relative to control (100%). The method, then: (§1) It has been found in accordance with the present invention that compounds of formula I are capable of inhibiting serine/threonine protein phosphatases. Inhibition of serine/threonine protein phosphatases is defined herein as inhibition of the activity of one or more of PP1, PP2A or PP3 at a concentration of 100 μM or less of the inhibitor compound. In a preferred embodiment, the activity of the phosphatase is inhibited by at least 10%. In more preferred embodiments, the activity of the phophatase is inhibited by at least 25%, or even more preferably, by at least 50%. Inhibition of PP1, PP2A or PP3 can be assessed by methods known to one of ordinary skill in the art. Suitable assays are described, for example by Honkanen et al. (1994) Toxicon 32:339 and Honkanen et al. (1990) J. Biol. Chem. 265: 19401, the disclosures of which are incorporated herein by reference. Briefly, phosphatase activity is determined by quantifying the [^32 p] released from a ^32 p-labeled substrate such as phosphohistone or phosphorylase-a. Decreased [^32 p] release in the presence of the compounds of the present invention relative to control samples provides a measure of the ability of the compounds of the invention to inhibit PP1, PP2A or PP3.
(§2) Phosphatase activity and the inhibitory activity of the compounds of Table 1 were determined by the method of Honkanen et al. (1994) Toxicon 32:339. Briefly, phosphatase activity against phosphorylase-a or phosphohistone was 25 determined by the quantification of liberated [^32 p]. Assays, 80 μl total volume, containing 50 mM Tris-HCl, pH 7.4, 0.5 mM DTT, 1 mM EDTA (assay buffer) and [^32 p]phosphoprotein (1-2 μM PO4), were conducted as described previously (Honkanen et al., 1991 Mol. Pharmac. 40:577). Dephosphorylation reactions were routinely conducted for 5-10 min. using phosphorylase-a as a substrate and for 10-20 min. using phosphohistone. In all assays the dephosphorylation of substrate was kept to less than 10% of the total phosphorylated substrate available, and the reactions were adjusted to ensure that enzyme activity was linear with respect to enzyme concentration and time. [^32 p]Phosphate liberated by the enzymes was extracted as a phosphomolybdate complex and measured according to the methods of Killilea et al. (1978) Arch. Biochem. Biophys. 191:638. Inhibition of protein phosphatase activity by inhibitors was determined by adding the 100 μM of inhibitors to the enzyme mixture 5-10 min. prior to initiating the reaction with the addition of substrate.

Another experiment has as its system PP3. Described as above. The following applies: 100 μM inhibitor; none = 100. The format is biochemical. The method, then:
as §1, §2

The subject of a further experiment is PP1. The description is as above. In kind it is biochemical. The following applies: 100 μM inhibitor; none = 100. The method, then: as §1, §2

Read-outs that look alike come from different tables or passages of the source.

Sequence of PP2A (P67774 whole entry): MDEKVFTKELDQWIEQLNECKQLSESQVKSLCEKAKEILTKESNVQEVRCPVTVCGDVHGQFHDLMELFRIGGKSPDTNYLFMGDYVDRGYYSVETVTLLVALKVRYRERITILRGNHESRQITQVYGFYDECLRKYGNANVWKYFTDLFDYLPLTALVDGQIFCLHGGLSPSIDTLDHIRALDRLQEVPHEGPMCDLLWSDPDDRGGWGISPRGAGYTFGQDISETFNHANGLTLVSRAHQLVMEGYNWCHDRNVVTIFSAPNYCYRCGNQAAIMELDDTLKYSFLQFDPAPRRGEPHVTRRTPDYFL

`CCCCCCCCCC(=O)NC(CCC(=O)N(CCNC(=O)c1nc(-c2ccccc2)oc1-c1ccccc1)Cc1ccccc1)C(=O)O` (stereo not shown) [Compound 1f]: the IC50 in experiment [1] (Homo sapiens, MDA-MB-231, 72 h) was 100 µM; in experiment [1], 88 to 100 µM. In addition, the “concentration dependence of growth inhibition (in words)” value in experiment [1] (MDA-MB-231, 72 h) was “concentration-dependent inhibition in proliferation”; in experiment [1] (MDA-MB-231, 72 h, listed as if) it was “clear concentration-dependency”. Also, the PP2A remaining activity, % of control at 100 µM at PP2A was 156%. Moreover, the “PP3 remaining activity, percent of control” value in the experiment with PP3 amounted to 85%. The “PP1 remaining activity, percent of control” value in the experiment on PP1 was found to be 117%.
